One assay deals with U2OS cells. Briefly: Cell growth inhibition against human osteosarcoma cells U2OS. It counts as cell-based. As to conditions: 72 hours, read-out: Cell Growth Inhibitory Activity, IC50, U2OS. The method, then:
(§1) Each of Saos-2 and U2OS cells was made into 1.0×10^4 cells/mL using a Roswell Park Memorial Institute's medium (RPMI) 1640 (manufactured by Nissui) containing 10% of fetal bovine serum and penicillin/streptomycin and a Dulbecco's modified Eagle medium (DME) (manufactured by Nissui) containing 10% fetal bovine serum and penicillin/streptomycin each. Each of the prepared cells was dispensed in an amount of 0.1 mL per well to a 96-well microtiter plate (#167008 manufactured by Nunk). Each plate was incubated in a carbon dioxide gas incubator at 37° C. for 20 hours. A solution of a test compound in DMSO prepared into 10 mmol/L was diluted with each medium for incubation and each 0.05 mL thereof was added to each well, subjected to stepwise dilution by means of a pipetting operation in the plate and incubated at 37° C. for 72 hours in a carbon dioxide gas incubator.
(§2) A supernatant was removed from cell culture, each well was washed with 0.1 mL of a phosphate buffer (PBS buffer) twice and 0.1 mL of the above medium was added to each well. A cell proliferation kit II (manufactured by Boehringer Mannheim) was used for the measurement of cell numbers in each well. A reagent for color reaction was added, incubation was carried out in a carbon dioxide gas incubator at 37° C. for 3 hours and absorbance at 490 nm and 650 nm was measured in a microplate reader (M-SP max 250; manufactured by Wako Pure Chemicals). A value where absorbance at 650 nm was deducted from that at 490 nm (difference absorbance) was calculated for each well and the difference absorbance obtained from non-treated cells and cells which were treated with a test compound of a known concentration was compared whereupon a concentration of the test compound which inhibited the cell growth to an extent of 50% was calculated and expressed as IC50.

The next assay concerns the target T1, human CDK2-cyclin E (Homo sapiens, UniProt P24941).
T1 construct: made in house; host or cells: Spodoptera frugiperda (Sf-9) insect cells, baculovirus
The assay is described as follows: CDK2 inhibitory activity (incorporation of 32P from [γ-32P]-ATP into GST-RB). It counts as biochemical. The settings on record: 50 μmol/L ATP, 30° C., 5 minutes; read-out: Enzyme Inhibitory Activity, IC50. The method, then: A crude extract of cells of an insect, Spodoptera frugiperda (Sf-9) infected with human CDK2-cyclin E-expressing baculovirus was subjected to an affinity purification to give an enzyme solution. The enzyme solution (4 μL), 20 μL of reaction solution containing a DMSO solution in which a test compound was dissolved (final concentration: 0.1%) and 5 μL of a substrate solution [50 μmol/L of ATP (final concentration), 2 μCi of [γ-^32P]-ATP and 500 ng of […] (GST-RB)] were incubated at 30° C. for 5 minutes. A sodium dodecylsulfate-polyacrylamide gel electrophoresis (SDS-PAGE) was carried out, then incorporation of radiation activity from [γ-^32P]-ATP into GST-RB was determined using an Image Analyzer BAS 200 (Fuji Photo-Film) and an enzyme inhibition was calculated. CDK2 inhibitory activity (I) at various concentrations of a test compound was calculated by the following formula using radiation activity (C) of the group to which no test compound was added, radiation activity (S) of the group to which a test compound was added and radiation activity (B) of a background (a sample where the reaction time was 0 hour) and a concentration by which CDK2 activity was inhibited to an extent of 50% by each test compound was defined as IC50. I(%)=[1−(S−B)/(C−B)]×100

Another assay deals with Saos-2 cells. Briefly: Cell growth inhibition against human osteosarcoma cells Saos-2. It counts as cell-based. The settings on record: Saos-2, 72 hours, read-out: Cell Growth Inhibitory Activity, IC50, Saos-2. The procedure: as §1, §2
Assay [1] has as its system human epidermoid carcinoma cells A431. The assay is described as follows: Abrogating action for the cell cycle accumulation in G2 and S phases (flow cytometry DNA histogram). Format: cell-based. The settings on record: cisplatin 20 μmol/L. The procedure:
Each 5 mL of human epidermoid carcinoma cells A431 (hereinafter, referred to as A431 cells) prepared in 6×10^4 cells/mL in a DMEM medium (manufactured by Nissui; hereinafter, referred to as the medium A) containing 10% fetal bovine serum were disposed in a 10-cm laboratory dish (manufactured by Falcon; product no. 3303). The plate was incubated in a carbon dioxide gas incubator at 37° C. for 24 hours, then cisplatin (manufactured by Sigma) where its final concentration in the medium A was made 20 μmol/L was added and the mixture was incubated at 37° C. for 1 hour in a carbon dioxide gas incubator.
After removing the medium, the cell was washed with PBS(−) [phosphate-buffered physiological saline solution (containing no calcium ion); manufactured by Dainippon Pharmaceutical, then the medium A was added thereto, the mixture was incubated at 37° C. for 15 hours in a carbon dioxide gas incubator, a compound which was appropriately diluted with the medium A was added thereto and the mixture was incubated again in a carbon dioxide gas incubator at 37° C. for 8 hours. After removal of the supernatant from the culture, the cell was washed with PBS(−), exfoliated with a 0.25% aqueous solution of trypsin (0.25% Trypsin manufactured by Gibco BRL) and a 0.02% aqueous solution of ethylenediaminetetraacetic acid (manufactured by Wako Pure Chemicals), fixed with a 70% aqueous solution of ethanol so as to make the cell concentration 10^6 cells/mL and preserved in a cool chamber of 4° C. The fixed cells were subjected to a centrifugal separation to remove ethanol, washed with PBS(−) and treated with a 0.25 mg/mL ribonuclease A type 1-A (manufactured by Sigma) PBS(−) solution containing 0.1% Nonidet P-40 (manufactured by Nakarai Kagaku Yakuhin) at 37° C. for 30 minutes and a 0.1% solution of propidium iodide (manufactured by Sigma) in NP-40/PBS(−) so as to make the final concentration 50 μg/mL followed by staining in ice for not shorter than 20 minutes.
A DNA histogram was measured using an EPICS ELITE Flow Cytometer (manufactured by Coulter) and distribution of cell cycle was analyzed using a MultiCycle Program (manufactured by Phonenix Flow Systems).
(Flow cytometry measures light scatter and fluorescence of single cells or particles in a stream.)

Where “and” joins values, the source holds several entries; their conditions need not be identical. Identical values can stand only once.

Take `CC(Cn1c2ccccc2c2c3c(c(C=NN)cc21)C(=O)NC3=O)N(C)C` (centres unmarked) [Compound 69]: the half-maximal inhibitory concentration (IC50) – broadly, the concentration at which inhibition is half-maximal – in the assay on U2OS cells was found to be 0.68 µM; on human CDK2-cyclin E it was 0.96 µM; in the assay on Saos-2 cells, 0.3 µM.
For the compound `C=CCn1c2ccccc2c2c3c(c(C=NNCCO)cc21)C(=O)NC3=O` [Compound 54], the IC50 on human CDK2-cyclin E stood at 2 µM.
For the compound `CCCCC(=O)Oc1cccc(-c2cc3c(cc(C=O)n3C)c3c2C(=O)NC3=O)c1` [Compound 12], at human CDK2-cyclin E, the IC50 turned out to be 5 µM.
As to `CN(C)CCCn1c2ccccc2c2c3c(c(C=NO)cc21)C(=O)NC3=O` [Compound 65], the concentration for half-maximal inhibition (IC50) in the assay with U2OS cells was found to be 0.5 µM; at human CDK2-cyclin E it was 2.8 µM; in the assay with Saos-2 cells, 0.68 µM.
`COC(=O)c1ccc(Cn2c3ccccc3c3c4c(c(COC5CCCCO5)cc32)C(=O)NC4=O)cc1` (centres unmarked) [Compound 79]: the IC50 on human CDK2-cyclin E was found to be 2 µM.
`CC(Cn1c2ccccc2c2c3c(c(C=O)cc21)C(=O)NC3=O)N(C)C` (centres unmarked) [Compound 66]: the half-inhibitory concentration (IC50) in the assay with U2OS cells is 2.1 µM; on human CDK2-cyclin E it was 0.25 µM; in the assay on Saos-2 cells it was 1.2 µM.
For the compound `Cn1c2ccccc2c2c3c(c(CBr)cc21)C(=O)NC3=O` [Compound 36], the IC50 at human CDK2-cyclin E was found to be 2.3 µM.
Same read-out and setting: under `C=CCn1c2ccccc2c2c3c(c(C=O)cc21)C(=O)NC3=O` [Compound 50] stands 0.66 µM; under `O=C1NC(=O)c2c1c(COC1CCCCO1)cc1c2c2ccccc2n1Cc1ccc2ccccc2c1` (centres unmarked) [Compound 80], 2.4 µM.
On the same count and under the same terms, the result for `C=CCn1c2ccccc2c2c3c(c(COC4CCCCO4)cc21)C(=O)NC3=O` (centres unmarked) [Compound 47] reads 4 µM.
In the case of `N.N.[Cl][Pt][Cl]` [Cisplatin, cisplatin], in assay [1], the “Cell Cycle Distribution (%) G1” value was 2.2% and 10.4%; the “Cell Cycle Distribution (%) G2M” value was 17.2% and 22.4%; the “Cell Cycle Distribution (%) S” value was 80.6% and 67.2%; the “Change of cell cycle distribution as compared with untreated groups (induction of the accumulation in G2 or S phase)” value is “increase in S phase, increase in G2 and M phase and decrease in G1 phase”.
On to `CN(C)CCCn1c2ccccc2c2c3c(c(C=O)cc21)C(=O)NC3=O` [Compound 64], for which the IC50 in the assay on U2OS cells was 1.6 µM; on human CDK2-cyclin E, 7 µM; in the assay with Saos-2 cells, 1.3 µM.
Turning to `C=CCn1c2ccccc2c2c3c(c(CO)cc21)C(=O)NC3=O` [Compound 46], the IC50 on human CDK2-cyclin E was 3.3 µM.
On to `CC(Cn1c2ccccc2c2c3c(c(C=NO)cc21)C(=O)NC3=O)N(C)C` (centres unmarked) [Compound 68], for which the IC50 turned out to be 1.2 µM with U2OS cells, 0.2 µM at human CDK2-cyclin E and 0.93 µM with Saos-2 cells.
On to `C=CCn1c2ccccc2c2c3c(c(CN=[N+]=[N-])cc21)C(=O)NC3=O` [Compound 48], for which the IC50 on human CDK2-cyclin E was 0.43 µM.
Consider `C=CCn1c2ccccc2c2c3c(c(N)cc21)C(=O)NC3=O` [Compound 45], for which, at human CDK2-cyclin E, the half-inhibitory concentration (IC50) is 4.9 µM.

For the origin of these results see US20050070591A1, “Indole derivative” (priority 2001, published 2005).
